Measured values: patent US9765039B2, “Biaryl derivatives as bromodomain inhibitors” (Zenith Epigenetics Ltd., priority 2012, dated 2017)
Counter-ions that a name gives are not always drawn.

Assays:
Brd4 bromodomain 1 = target: T1, Brd4 bromodomain 1 (Homo sapiens, UniProt O60885); assay: Inhibition of tetra-acetylated histone H4 binding to BET bromodomains (TR-FRET); set-up: key: Active: Compounds with an IC50 value less than 30 μM were deemed to be active.; Not Active: Compounds with an IC50 value less than 30 μM were deemed to be active; conditions: first bromodomain of Brd4, tetra-acetylated histone H4 peptide
T1 construct: made in house; host or cells: E. coli BL21(DE3)
Description: Proteins were cloned and overexpressed with a N-terminal 6×His tag, then purified by nickel affinity followed by size exclusion chromatography. Briefly, E. coli BL21(DE3) cells were transformed with a recombinant expression vector encoding N-terminally Nickel affinity tagged bromodomains from Brd2, Brd3, Brd4. Cell cultures were incubated at 37° C. with shaking to the appropriate density and induced overnight with IPTG. The supernatant of lysed cells was loaded onto Ni-IDA column for purification. Eluted protein was pooled, concentrated and further purified by size exclusion chromatography. Fractions representing monomeric protein were pooled, concentrated, aliquoted, and frozen at −80° C. for use in subsequent experiments.
Binding of tetra-acetylated histone H4 and BET bromodomains was confirmed by a Time Resolved Fluorescence Resonance Energy Transfer (TR-FRET) method. N-terminally His-tagged bromodomains (200 nM) and biotinylated tetra-acetylated histone H4 peptide (25-50 nM, Millipore) were incubated in the presence of Europium Cryptate-labeled streptavidin (Cisbio Cat. #610SAKLB) and XL665-labeled monoclonal anti-His antibody (Cisbio Cat. #61HISXLB) in a white 96 well microtiter plate (Greiner). For inhibition assays, serially diluted test compound was added to these reactions in a 0.2% final concentration of DMSO. Final buffer concentrations were 30 mM HEPES pH 7.4, 30 mM NaCl, 0.3 mM CHAPS, 20 mM phosphate pH 7.0, 320 mM KF, 0.08% BSA). After 2 hours incubation at room temperature, the fluorescence by FRET was measured at 665 and 620 nm by a SynergyH4 plate reader (Biotek). Illustrative results with the first bromodomain of Brd4 are shown below (Table 1). The binding inhibitory activity was shown by a decrease in 665 nm fluorescence relative to 620 nm. IC50 values were determined from a dose response curve.

hIL-6 mRNA = assay: Inhibition of hIL-6 mRNA transcription in LPS-stimulated U937 macrophages; type: cell-based, human; set-up: key: Active: Compounds with an IC50 value less than 30 μM are deemed to be active; conditions: U937 differentiated into macrophages, 1 h pretreatment, lipopolysaccharide 3 h
Description: In this example, hIL-6 mRNA in tissue culture cells was quantitated to measure the transcriptional inhibition of hIL-6 when treated with a compound of the present disclosure.
A human leukemic monocyte lymphoma cell line (U937) was plated (3.2×10^4 cells per well) in a 96-well plate in 100 μL RPMI-1640 containing 10% FBS and penicillin/streptomycin, and differentiated into macrophages for 3 days in 60 ng/mL PMA ([…]) at 37° C. in 5% CO2 prior to the addition of the compound of interest. The cells were pretreated for 1 h with the test compound prior to stimulation with […] lipopolysaccharide from Escherichia coli. The cells were incubated at 37° C. for 3 h before the cells were harvested. At time of harvest, the spent media was removed from the cells and the cells were rinsed in 200 μL PBS. Cell lysis solution (70 μL) was added the cells in each well and incubated for 5-10 min at room temperature, to allow for complete cell lysis and detachment. mRNA was then prepared using the “mRNA Catcher PLUS plate” (Invitrogen), according to the protocol supplied. After the last wash, as much wash buffer as possible was aspirated without allowing the wells to dry. Elution buffer (E3, 70 μL) was then added to each well. mRNA was then eluted by incubating the mRNA Catcher PLUS plate with Elution Buffer for 5 min at 68° C. and then immediately placing the plate on ice.
The eluted mRNA isolated was then used in a one-step quantitative real-time PCR reaction, using components of the Ultra Sense Kit together with Applied Biosystems primer-probe mixes. Real-time PCR data was analyzed, normalizing the Ct values for hIL-6 to an internal control, prior to determining the fold induction of each unknown sample, relative to the control.

c-myc = assay: Inhibition of c-myc expression in cancer cell lines (mRNA, real-time PCR); type: cell-based; set-up: key: Active: Compounds with an IC50 value less than 30 μM were deemed to be active; conditions: Human AML MV4-11 cells, 3 hours
Description: MV4-11 cells (2.5×10^4 cells) were plated in 96 well U-bottom plates with test compound or DMSO (0.1%), and incubated for 3 hours at 37° C. Cells were then harvested by centrifugation, lysed, and mRNA was isolated using the mRNA catcher plus kit (Invitrogen). Reverse transcription of the mRNA and duplex amplification of the c-myc and cyclophilin cDNAs was performed using the RNA Ultrasense kit (Invitrogen) and a ViiA7 real-time PCR machine (Applied Biosystems). IC50 values were determined from a dose response curve.

Human AML MV-4-11 cells = assay: Inhibition of cell proliferation in cancer cell lines (CellTiter Aqueous One); type: cell-based; set-up: key: Active: Compounds with an IC50 value less than 30 μM were deemed to be active.; Not Active: Compounds with an IC50 value less than 30 μM were deemed to be active; conditions: 72 hours
Description: MV4-11 cells: 96-well plates were seeded with 5×10^4 cells per well of exponentially growing human AML MV-4-11 (CRL-9591) cells and immediately treated with two-fold dilutions of test compounds, ranging from 30 μM to 0.2 μM. Triplicate wells were used for each concentration, as well as a media only and three DMSO control wells. The cells and compounds were incubated at 37° C., 5% CO2 for 72 hours before adding 20 μL of the CellTiter Aqueous One Solution (Promega) to each well and incubating at 37° C., 5% CO2 for an additional 3-4 hours. The absorbance was taken at 490 nm in a spectrophotometer and the percentage of proliferation relative to DMSO-treated cells was calculated after correction from the blank well. IC50 were calculated using the GraphPad Prism software.

melting point | FRET activity (IC50 < 30 μM) (Brd4 bromodomain 1) | IL-6 activity (IC50 < 30 μM) (hIL-6 mRNA) | c-myc activity (IC50 < 30 μM) (c-myc) | cell proliferation activity (IC50 < 30 μM) (Human AML MV-4-11 cells) | SMILES
232 to 234 °C |  |  |  |  | COc1cc(OC)c2c(=O)[nH]c(-c3ccc(OCCO)c(-c4ccc(C(C)=O)cc4)n3)nc2c1 (as salt: hydrochloride) [Example 28, 2-(6-(4-Acetylphenyl)-5-(2-hydroxyethoxy)pyridin-2-yl)-5,7-dimethoxyquinazolin-4(3H)-one]
235 to 236 °C |  |  |  |  | CCS(=O)(=O)c1ccc(-c2nc(-c3nc4cc(OC)cc(OC)c4c(=O)[nH]3)ccc2OCCN2CCCC2)cc1 (as salt: hydrochloride) [Example 42, 2-(6-(4-(Ethylsulfonyl)phenyl)-5-(2-(pyrrolidin-1-yl)ethoxy)pyridin-2-yl)-5,7-dimethoxyquinazolin-4(3H)-one]
245 °C (dec.) |  |  |  |  | CCS(=O)(=O)c1ccc(-c2nc(-c3nc4cc(OC)cc(OC)c4c(=O)[nH]3)ccc2OCCN2CCOCC2)cc1 (as salt: hydrochloride) [Example 43, 2-(6-(4-(Ethylsulfonyl)phenyl)-5-(2-morpholinoethoxy)pyridin-2-yl)-5,7-dimethoxyquinazolin-4(3H)-one]
 | Not Active | Not Active |  |  | CN1CC[C@H](Oc2cc(F)cc3nc(-c4cccc(-c5ccc(S(C)(=O)=O)cc5)n4)[nH]c(=O)c23)C1 [Example 7, (S)-7-Fluoro-5-((1-methylpyrrolidin-3-yl)oxy)-2-(6-(4-(methylsulfonyl)phenyl)pyridin-2-yl)quinazolin-4(3H)-one]
 | Not Active | Active | Not Active | Active | COc1cc(OC)c2c(=O)[nH]c(-c3cccc(-c4ccc(C(=O)N(C)C)cc4)n3)cc2c1 [Example 8, 4-(6-(6,8-Dimethoxy-1-oxo-1,2-dihydroisoquinolin-3-yl)pyridin-2-yl)-N,N-dimethylbenzamide]
 | Not Active | Not Active |  |  | COc1cc(OC)c2c(=O)[nH]c(-c3cccc(-c4ccc(S(C)(=O)=O)cc4)n3)cc2c1 [Example 9, 6,8-Dimethoxy-3-(6-(4-(methylsulfonyl)phenyl)pyridin-2-yl)isoquinolin-1(2H)-one]
 | Not Active | Active |  |  | COc1cc(OC)c2c(=O)[nH]c(-c3cccc(-c4ccc([S+](C)[O-])cc4)n3)cc2c1 (centres unmarked) [Example 10, 6,8-dimethoxy-3-(6-(4-(methylsulfinyl)phenyl)pyridin-2-yl)isoquinolin-1(2H)-one]
 | Active | Active | Active | Active | COc1cc(OC)c2c(=O)[nH]c(-c3ccc(OCCN(C)C)c(-c4ccc([S+](C)[O-])cc4)c3)nc2c1 (centres unmarked) [Example 11, 2-(6-(2-(Dimethylamino)ethoxy)-4′-(methylsulfinyl)biphenyl-3-yl)-5,7-dimethoxyquinazolin-4(3H)-one]
 |  | Not Active | Not Active | Not Active | COc1cc(OC)c2c(=O)[nH]c(-c3ccc(OC4CNC4)c(-c4ccc([S+](C)[O-])cc4)c3)nc2c1 (centres unmarked) [Example 12, 2-(6-(Azetidin-3-yloxy)-4′-(methylsulfinyl)biphenyl-3-yl)-5,7-dimethoxyquinazolin-4(3H)-one]
 | Active | Active | Active | Active | COc1cc(OC)c2c(=O)[nH]c(-c3ccc(OC4CN(C)C4)c(-c4ccc([S+](C)[O-])cc4)c3)nc2c1 (centres unmarked) [Example 13, 5,7-Dimethoxy-2-(6-(1-methylazetidin-3-yloxy)-4′-(methylsulfinyl)biphenyl-3-yl)quinazolin-4(3H)-one]
 | Active | Not Active | Not Active | Not Active | COc1cc(F)cc2nc(-c3ccc(OC4CNC4)c(-c4ccc([S+](C)[O-])cc4)c3)[nH]c(=O)c12 (centres unmarked) [Example 14, 2-(6-(Azetidin-3-yloxy)-4′-(methylsulfinyl)-[1,1′-biphenyl]-3-yl)-7-fluoro-5-methoxyquinazolin-4(3H)-one]
 | Active | Active | Not Active | Not Active | COc1cc(OC)c2c(=O)[nH]c(-c3ccc(OCCO)c(-c4ccc([S+](C)[O-])cc4)c3)nc2c1 (centres unmarked) [Example 16, 2-(6-(2-Hydroxyethoxy)-4′-(methylsulfinyl)biphenyl-3-yl)-5,7-dimethoxyquinazolin-4(3H)-one]
 | Active | Active |  |  | COc1cc(OC)c2c(=O)[nH]c(-c3ccc(OCCO)c(-c4ccc(C(C)=O)cc4)n3)nc2c1 [Example 28, 2-(6-(4-Acetylphenyl)-5-(2-hydroxyethoxy)pyridin-2-yl)-5,7-dimethoxyquinazolin-4(3H)-one]
 | Not Active | Not Active | Not Active | Not Active | COc1cc(OC)c2c(=O)[nH]c(-c3ccc(OCCO)c(-c4cccc(S(C)(=O)=O)c4)n3)nc2c1 [Example 36, 2-(5-(2-Hydroxyethoxy)-6-(3-(methylsulfonyl)phenyl)pyridin-2-yl)-5,7-dimethoxyquinazolin-4(3H)-one methanesulfonate]
 | Active | Active |  |  | CC(C)NCCOc1ccc(-c2nc3ccccc3c(=O)[nH]2)nc1-c1ccc([S+](C)[O-])cc1 (centres unmarked) [Example 65, 2-(5-(2-(Isopropylamino)ethoxy)-6-(4-(methylsulfinyl)phenyl)pyridin-2-yl)quinazolin-4(3H)-one]
 | Active |  |  |  | COc1ccc2c(=O)[nH]c(-c3ccc(OCCNC(C)C)c(-c4ccc([S+](C)[O-])cc4)n3)nc2c1 (centres unmarked) [Example 66, 2-(5-(2-(Isopropylamino)ethoxy)-6-(4-(methylsulfinyl)phenyl)pyridin-2-yl)-7-methoxyquinazolin-4(3H)-one]
